In assay [1] the test system is normal lower limb (quadriceps) primary cultures. Briefly: Desmin positive cell proliferation, normal lower limb (quadriceps) primary cultures. Format: cell-based, human. The conditions noted are these: for desmin positive cells as percentage of total cells: peptide alone, 10 ng/ml, mean±s.d. An excerpt: Human primary muscle cell cultures were isolated as previously described [Lewis et al., 2000; Sinanan et al., 2004]. Briefly, following informed consent, craniofacial (masseter) muscle biopsies were obtained from healthy adult and CMD patients during elective surgery at the Eastman and Middlesex Hospitals, London, UK. Human lower limb (vastus lateralis) muscle samples were obtained from consenting, adult healthy, FSHD and ALS patients by needle biopsy under local anaesthesia at the Royal Free Hospital, London, UK. Biopsies were pooled from several patients with the same disorder to obtain sufficient cell numbers in the primary cultures. These were washed with antibiotic (penicillin, 100 U/ml; streptomycin, 100 μg/ml; fungizone, 2.5 μg/ml; Invitrogen) supplemented DMEM (high glucose; Invitrogen), scissor-minced and tissue fragments plated into 0.2% gelatin-coated (Sigma-Aldrich) T150 cm^2 culture flasks (Helena Biosciences). Explant cultures were incubated in serum-containing Growth Media (sGM), composed of DMEM, 20% FCS (PAA Laboratories), penicillin (100 U/ml) and streptomycin ([…]) (Invitrogen), and maintained at 37° C. in humidified 95% air with 5% CO2. The first wave of migration of mononuclear cells from the explant was designated the […]-wave and this population was used throughout this study. Migratory human muscle cell were enzymatically harvested using trypsin-EDTA (Invitrogen) and subcultured in sGM until 70-80% confluency. Passage number x (Px), was defined as the xth sequential harvest of subconfluent cells. All experiments were performed using P3-5 cohorts. […]
At the appropriate time-points, cells were fixed with methanol for 10 min (−20° C.), followed by detergent permeabilization with 0.5% Triton-X100 for 10-15 min. […] Cell-associated fluorescence and morphology, were visualized by epi-fluorescence and Leica Modulation Contrast (LMC) microscopy respectively, using an inverted Leica DMIRB microscope equipped with Leica FW4000 image processing software. For the proliferation assay, all blue and green fluorescent positive cells were counted in a field. […]

The subject of assay [2] is rat organotypic hippocampal cultures. In words: TBH oxidative stress in rat organotypic hippocampal cultures, PI-stained cell death. Format: cell-based. The conditions noted are these: for time for which the neuroprotective effect was observed: rat hippocampal slices after TBH challenge; for protection against TBH-induced cell death: rat hippocampal slices, 24 hours, peptide 10 ng/ml as printed. The protocol: Hippocampal slices were prepared from 7-10 days old Wistar rats according to the method of Stoppini et al (1991) with minor modifications according to Sarnowska (2002). Briefly, rats were anaesthetised with Vetbutal, ice-cooled and decapitated. Brains were quickly removed to ice-cold working solution pH 7.2: 96% of HBSS/HEPES-(Ca2^+ and Mg2^+ free) containing 2 mmol/L L-glutamine, 5 mg/ml glucose, 1% amphotericine B, 0.4% penicillin-streptomycin. Hippocampi were separated and cut into 400 μm slices using McIlwain tissue chopper. […] Four selected slices were settled on each membrane. Slices were cultivated for two weeks at 32° C. in 5% CO2 atmosphere of 100% humidity. The viability of the slices was checked daily under the light microscopy and evaluated additionally on the day of experiment by propidium iodide staining and observed under fluorescent microscope (Zeiss Axiovert 25) with MC-10095 camera (Carl Zeiss Jena GmbH) in order to record initial PI uptake (Sarnowska, 2002).
Oxidative stress was induced after 14 days in culture by adding 30 mM TBH ([…]) for 3 hours. After that time the slices were transferred to the fresh culture medium. Resulting cell death was assessed 24 and 48 h after the beginning of the experiment.
In order to investigate a pathway in which the MGF acts, a specific anti-IGF-1 receptor (AB-1) blocking antibody (Oncogene) was included in the medium 1 hour before the slices were exposed to TBH and MGF or IGF-1 peptide. The concentration of the antibody (1000 ng/ml) was used according to the manufacturer's recommendation.
To obtain detailed images of the slices, a confocal laser scanning microscope (Zeiss LSM 510) was used. A helium-neon laser (543 nm) was used for the excitation of propidium iodide (PI). […] Quantitative measurement of tissue deterioration was performed using image analyser KS 300 (Carl Zeiss Jena GmbH).
Cell damage was quantified on fluorescence images of PI-stained cultures 24 and 48 hours after TBH challenge. The relative extent of cell death was calculated from each standardized CA1 region as follows: % of dead cells=(experimental fluorescent intensity (FI)−background FI)/(maximal FI−background FI)×100, where maximal FI was obtained by killing all cells with exposure to 100 mM glutamate.
All the measurements were repeated for 5 independent culture preparations and 8 slices were used for each experimental condition. Statistical significance of the differences between the results was calculated using one-way Anova followed by Dunnet's test, (GraphPad Prism 3.02).
Rat brain slices were isolated following induction of localized damage by TBH (tert-butyl hydroperoxide) as discussed above. The resulting cell death in treated and non-treated brain slices was determined. […]

Assay [3] relates to dystrophic muscles of the mdx mouse. Briefly: Intramuscular injection into dystrophic muscle of mdx mice, tetanic force. Format: in vivo. The conditions noted are these: i.m. two per week for three weeks. The protocol: Greater increases, of up to around 35% (FIGS. 3A, 3B), were recorded for intramuscular injections (two per week for three weeks) in the dystrophic muscles of the mdx mouse, which has the same type of mutation as that in human Duchenne muscular dystrophy.

*1 amine or outer side, *2 acyl side, *3 side chain or, on linkers, in order; H or OH if unused. [ ]: non-standard residue; d: D form. PEG (Jeffamine) = not defined here; Suc = O=C(CCC(=O)[*:2])[*:1] Some results are limits rather than exact numbers.

“IGF-I: IGF-I receptor binding domain encoded by Exons 3 and 4, common to all splice variants, approximately 70 amino acids [reference compound]”: in assay [1], the “desmin positive cells as percentage of total cells” value is 47.1±3.5%. In addition, in assay [2], the “time for which the neuroprotective effect was observed” value is reported as “up to 24 hours” and the “protection against TBH-induced cell death” value came to 72%. For the same substance, the “percentage change in tetanic force (increase in muscle strength)” value in assay [3] is listed as “around 5%”.
On to “stabilised peptide: SEQ ID NO: 15 with D-Arginine at positions 14 and 15, N-terminus attached to PEG (Jeffamine) via succinic acid bridge, amidated at C-terminus ({PEG (Jeffamine)-Suc}-YQPPSTNKNTKSQ[dR][dR]KGSTFEEHK-NH2; reading uncertain)”, for which, in assay [1], the “desmin positive cells as percentage of total cells” value was determined as 57.9±3.2%. Further, the “desmin positive cells as percentage of total cells, IGF-I added” value in assay [1] (stabilised peptide in combination with IGF-I) was 38.8±0.6%. For the same substance, in assay [2], the “time for which the neuroprotective effect was observed” value is not below 48 h and the “protection against TBH-induced cell death” value came to 85%. In addition, in assay [3], the “percentage change in tetanic force (increase in muscle strength)” value was not above 35%.
